# From article PMC9861623, “New Ferulic Acid and Amino Acid Derivatives with Increased Cosmeceutical and Pharmaceutical Potential” (Pharmaceutics, 2022)
# Where “and” joins values, the source holds several entries; their conditions need not be identical. Equal values may be shown once.
# How the values were obtained:
# [1] = DPPH radical scavenging assay of the compounds
# Description: To determine the antioxidant capacity of ferulic acid and its derivatives the DPPH method was used. The analyses were performed using the Hitachi UV-Vis Spectrophotometer U-5100 at the wavelength λ = 517 nm. Trolox (6-hydroxy-2,5,7,8-tetramethylchroman-2-carboxylic acid) was used as a reference substance. The antioxidant activity was expressed as %RSA and mmol Trolox dm^−3. […]. Blank samples without antioxidant were prepared in the same way. The tubes were wrapped in aluminum foil and were sealed with a stopper and then incubated for 10 min at room temperature. After this time, spectrophotometric measurements were carried out in triplicate. For determination of antioxidant activity of the acceptor fluid after 24 h of permeation and solutions obtained by extraction of the skin obtained after penetration study, 0.15 mL samples of each solutions were separately added to 2.85 mL of DPPH solution and spectrophotometric measurements were performed. The antioxidant activity was expressed as mmol Trolox·dm^−3.
# NIH-3T3 cells = test system: NIH-3T3 cells; parameters: method as in PMID 29077251; conditions: NIH-3T3, 500 μg mL^−1; cited from earlier work
# 3T3-L1 cells = test system: 3T3-L1 cells; parameters: method as in PMID 29077251; conditions: 3T3-L1, 500 μg mL^−1; cited from earlier work
# L929 cells = test system: L929 cells; parameters: method as in PMID 32485864; conditions: L929, 24 h, highest tested concentration of 2.5–40 mg L^−1, Trypan blue; cited from earlier work
# [2] = Skin permeation in Franz diffusion cells; assay type: in vitro ADME, pig; conditions: 24 h, 10 mg as FA applied
# Description: In the experiment, abdominal porcine skin coming from the local slaughterhouse was used. Pig skin was chosen because of its similar permeability to human skin [34, 35]. The fresh abdominal porcine skin was washed several times in PBS buffer pH 7.4. The skin of 0.5 mm in thickness was dermatomed and divided into 2 cm × 2 cm pieces. The skin samples were wrapped in aluminum foil and stored at −20 °C until use, not longer than 3 months. According to Badran et al., this storage time at this temperature is safe to keep skin barrier properties. Immediately before the experiment, the skin samples were slowly thawed at room temperature for 30 min and then were hydrated by PBS pH 7.4 [37, 38, 39, 40]. Such prepared skin was mounted on donor chamber. Only the undamaged skin pieces with an even thickness were chosen for experiments. The integrity of the skin was checked by impedance measurement using an LCRmeter4080 (Conrad Electronic, Hirschau, Germany), operated in parallel mode at an alternating frequency of 120 Hz (error at kΩ values < 0.5%). The tips of measuring probes were immersed in the donor and acceptor chamber containing PBS (pH 7.4), as described previously. Only skin samples of impedance > 3 kΩ were applied as such impedance is similar to the electrical resistance of human skin [42].
# The concentration of FA and its derivatives in the acceptor fluid and in the fluid obtained by skin extraction after permeation experiment was assessed using liquid chromatography system (Knauer, Berlin, Germany) consisting of a model 2600 UV detector, Smartline model 1050 pump and Smartline model 3950 autosampler. HPLC was controlled by ClarityChrom 2009 software. The detector was operated at 280 nm. The separations were performed on 125 mm × 4 mm ID chromatographic column filled with Hyperisil ODS (C18), particle size 5 µm, in isocratic mode. The mobile phase consisted of acetonitrile, 1% acetic acid, and MeOH (47/47/6 v/v/v) and was pumped at flow rate of 1 mL min^−1. The column temperature was set at 25 °C, and the injection volume was 20 µL.
# The permeation experiments were performed using Franz diffusion cells (Phoenix DB-6, ABL&E-JASCO, Wien, Austria). The diffusion was 1 cm^2. The volume of the acceptor chamber was 8 mL. This chamber was filled with PBS solution (pH 7.4). During experiment, a constant temperature of 37.0 ± 0.5 °C was maintained in each diffusion unit. The acceptor chamber content was stirred with a magnetic stirring bar at the same speed for all cells. The prepared pig skin was mounted on each donor chamber. As previously mentioned, only undamaged skin pieces with an even thickness were chosen for experiments. Thereafter, the hydrogel or emulsion vehicle/preparation in 1 g portion was put on the skin in donor cells. For comparison, 1 mL ethanolic solution containing either FA or its derivatives was applied to another donor chamber. The amount of the FA and its derivatives applied on the skin expressed as the mass of ferulic acid was 0.01 g and was the same for each carrier. The penetration experiments were carried out for 24 h. The samples were collected after 1 h, 2 h, 3 h, 4 h, 5 h, 6 h, 8 h, and 24 h. Aliquots of the acceptor fluid (0.5 mL) were withdrawn and to each acceptor chamber the same volume of fresh PBS solution was added. The FA and its derivatives’ concentrations in the acceptor fluid were measured by HPLC method (Section 2.6.2). The cumulative mass (µg·cm^−2) and penetration rate (µg·cm^−2·h^−1) were calculated. The acceptor fluid collected after 24 h of permeation was also measured for antioxidant activity and total polyphenol content (as described in Section 2.5.1 and Section 2.5.2).
# [3] = n-octanol/water partition coefficient by shake flask method; assay type: physicochemical; conditions: from log PO/W
# Description: The n-octanol/water partition coefficient (log PO/W) was determined for ferulic acid and its derivatives by shake flask method. n-Octanol saturated with water and water saturated with n-octanol were prepared at 25 °C, 24 h prior to their use in the experiments. Then, a sample of 10 mg of compound was weighed with the accuracy of 0.01 mg in a 16 cm^3 screwed vial and dissolved in 5 cm^3 of n-octanol. Next, 5 cm^3 of water was added to the vial. The resulting two-phase mixture was kept in water bath shaker at 25 °C for 2 h and was strongly shaken to reach the partition equilibrium of the compound between the phases. Then the mixture was left unshaken for 30 min and 1.0 cm^3 of water phase was carefully taken out to centrifuge tube. The sample was next centrifuged for 10 min at 7500 rpm at 25 °C to ensure the most precise phase separation. The concentration of compound in water phase was then determined using HPLC method. The partition coefficient, log PO/W was calculated according to the formula: logPO/W=logC0V0−CWVW/CWVW where: C0—initial concentration of the compound in n-octanol, calculated based on the weighed mass of compound, mg·cm^−^3; V0—volume of n-octanol, cm^3; CW—concentration of the compound in water after partition equilibrium, mg·cm^−^3; VW—volume of water, cm^3.
# [4] = test system: Murine fibroblasts (L929); test: Cytotoxicity, PrestoBlue resazurin-based cell viability assay; conditions: 0.03125–2.0 mM (any dosage), 24 h
# Description: The cell biocompatibility was evaluated using a PrestoBlue HS Cell Viability Reagent (Thermo Fisher Scientific, MA USA) based on the reduction of the resazurin to highly fluorescent resorufin, of which the amount is directly correlated to the number of living cells. […] The cells without tested compounds were used as control. The interaction of tested compounds without cells and Prestoblue Reagent (blank wells) was excluded. After 24 h of treatment, optical microscopy imaging of L929 cells was performed using Smart Fluorescent Cell Analyzer Microscope JuLi (Seoul, Korea). Next, the PrestoBlue reagent (10 μL) was added to each well and incubated for 30 min. The fluorescence was measured using a spectrophotometric microplate reader (Infinite 200 Pro, Tecan, Männedorf, Switzerland) at ex/em: 560/594 nm. The readings were acquired from at least three independent experiments (each conducted in triplicate) and normalized to the control (100% viability).
# [5] = molar ratio antioxidant:DPPH 0.1, 10 min, listed as FA
# [6] = molar ratio antioxidant:DPPH 1.0, 10 min
# [7] = molar ratio antioxidant:DPPH 2.0, 10 min, listed as FA
smiles,measurement,setting,value
COc1cc(/C=C/C(=O)O)ccc1O [Ferulic acid],Antioxidant activity %RSA,[1]; [5],12.4 ± 0.001 %RSA and 12.4 ± 0.001 a %RSA
same,"Antioxidant activity, Trolox equivalents",[1]; [5],0.049 ± 0.001 mmol Trolox dm^−3 and 0.049 ± 0.001 a mmol Trolox dm^−3
same,Antioxidant activity %RSA,[1]; [6],73.2 ± 0.001 b %RSA
same,"Antioxidant activity, Trolox equivalents",[1]; [6],0.635 ± 0.001 b mmol Trolox dm^−3
same,Antioxidant activity %RSA,[1]; [7],86.5 ± 0.001 %RSA and 86.5 ± 0.001 b %RSA
same,"Antioxidant activity, Trolox equivalents",[1]; [7],0.763 ± 0.001 mmol Trolox dm^−3 and 0.763 ± 0.001 b mmol Trolox dm^−3
same,toxicity on normal cells,NIH-3T3 cells,did not cause any toxicity
same,toxicity on normal cells,3T3-L1 cells,did not cause any toxicity
same,cell viability,L929 cells,80%
same,Cumulative Permeation Mass,[2]; from emulsion,104.93 ± 7.63 a µg FA·cm^−2
same,Cumulative Permeation Mass,[2]; from hydrogel,289.36 ± 38.50 a µg FA·cm^−2
same,Cumulative Permeation Mass,[2]; from solution in 70% (v/v) ethanol,368.57 ± 2.94 a µg FA·cm^−2
same,Share of compound partitioned to n-octanol,[3],~98%
same,Difference in L929 viability between control and treated cells,[4],No statistically significant differences in viability
